# Experimental data reported in US9066861B2 (priority 2009, dated 2015).
# How the values were obtained:
# Type in all cases: physicochemical
# [1] = Stability analysis of raw API by stability indicating HPLC method; conditions: for Assay (%) HPLC / Percentage Drop (%) HPLC / loss in 3 Months: raw API; for Assay (%) HPLC / Percentage Drop (%) HPLC: after 3 Months
# Source text: (§1) In both studies the * Initial denotes the results of the samples tested at the time of receipt of the API from the supplier.
# [2] = Stability analysis of raw API by titration method (BP); conditions: after 3 Months
# Source text: as §1
# [3] = Assay (%) test of APIs in cream, stability study, HPLC method
# Description: The stability of the product is confirmed by the stability studies performed for 3/6 months as per ICH guidelines.
# APIs-stability experiments were carried out (see tables 3-20) using several products that are representative of the present invention. Tests were carried out to observe (or measure as appropriate) the physical appearance of the product, the pH value and assay of the APIs over a period of time. […] Betamethasone Valerate—0.12% (w/w) • ii. Fluticasone Propionate—0.05% (w/w) • iii. Mometasone Furoate—0.1% (w/w) • iv. Dexamethasone Acetate—0.1% (w/w) • v. Hydrocortisone Acetate—1.0% (w/w) • vi. Clobetasol Propionate—0.05% (w/w) • vii. Beclomethasone Dipropionate—0.025% (w/w) • viii. Betamethasone Dipropionate—0.05% (w/w) wherein all percentages are with respect to the final formulation.
# The product used for the Stability Studies tests contained approximately 10% extra APIs (overages).
structure (smiles),measurement,setting,value
CC(=O)O[C@H]1C[C@@]2(C)[C@@H](C[C@@H](O)[C@H]3[C@@]4(C)CC[C@@H](O)[C@@H](C)[C@@H]4CC[C@@]32C)/C1=C(\CCC=C(C)C)C(=O)O [Fusidic acid],Initial (%),"[1]; raw API tested at the time of receipt from the supplier, method not stated",100.6%
same,Assay (%) HPLC,[1]; 45° C. (C) closed Petri dish,92.12%
same,Percentage Drop (%) HPLC,[1]; 45° C. (C) closed Petri dish,8.48%
same,Assay (%) HPLC,[1]; 45° C. (O) open Petri dish,89.52%
same,Percentage Drop (%) HPLC,[1]; 45° C. (O) open Petri dish,11.08%
same,loss in 3 Months,[1]; 45° C. (open condition),about 11%
same,Assay (%) HPLC,[1]; RT (C) closed Petri dish,94.37%
same,Percentage Drop (%) HPLC,[1]; RT (C) closed Petri dish,6.23%
same,Assay (%) HPLC,[1]; RT (O) open Petri dish,92.93%
same,Percentage Drop (%) HPLC,[1]; RT (O) open Petri dish,7.67%
same,loss in 3 Months,[1]; room temperature (open condition),about 7.7%
same,"stability as an API, Sodium Fusidate compared with Fusidic acid","[1]; raw APIs, Tables 1 and 2",deteriorates more rapidly than Sodium Fusidate
same,Assay (%) Titration,[2]; 45° C. (C) closed Petri dish,99.10%
same,Percentage Drop (%) Titration,[2]; 45° C. (C) closed Petri dish,1.50%
same,Assay (%) Titration,[2]; 45° C. (O) open Petri dish,98.52%
same,Percentage Drop (%) Titration,[2]; 45° C. (O) open Petri dish,2.08%
same,Assay (%) Titration,[2]; RT (C) closed Petri dish,99.02%
same,Percentage Drop (%) Titration,[2]; RT (C) closed Petri dish,1.58%
same,Assay (%) Titration,[2]; RT (O) open Petri dish,99.21%
same,Percentage Drop (%) Titration,[2]; RT (O) open Petri dish,1.39%
same,Assay (%),"[3]; in cream Batch No. HAS-01, 25° C. 60% RH, 1st Month",108.50%
same,Assay (%),"[3]; in cream Batch No. HAS-01, 25° C. 60% RH, 2nd Month",108.44%
same,Assay (%),"[3]; in cream Batch No. HAS-01, 25° C. 60% RH, 3rd Month",108.36%
same,Assay (%),"[3]; in cream Batch No. HAS-01, 30° C. 65% RH, 1st Month",108.51%
same,Assay (%),"[3]; in cream Batch No. HAS-01, 30° C. 65% RH, 2nd Month",108.42%
same,Assay (%),"[3]; in cream Batch No. HAS-01, 30° C. 65% RH, 3rd Month",108.32%
same,Assay (%),"[3]; in cream Batch No. HAS-01, 40° C. 75% RH, 1st Month",108.48%
same,Assay (%),"[3]; in cream Batch No. HAS-01, 40° C. 75% RH, 2nd Month",108.34%
same,Assay (%),"[3]; in cream Batch No. HAS-01, 40° C. 75% RH, 3rd Month",108.20%
same,Assay (%),"[3]; in cream Batch No. HAS-01, Freezthaw, 1st Month",108.31%
same,Assay (%),"[3]; in cream Batch No. HAS-01, Initial",108.52%
same,Assay (%),"[3]; in cream Batch No. HAS-01, Temperature cycling, 1st Month",108.40%
same,Assay (%),"[3]; in cream Batch No. SBV-01, 25° C. 60% RH, 1st Month",108.54%
same,Assay (%),"[3]; in cream Batch No. SBV-01, 25° C. 60% RH, 2nd Month",108.42%
same,Assay (%),"[3]; in cream Batch No. SBV-01, 25° C. 60% RH, 3rd Month",108.40%
same,Assay (%),"[3]; in cream Batch No. SBV-01, 30° C. 65% RH, 1st Month",108.53%
same,Assay (%),"[3]; in cream Batch No. SBV-01, 30° C. 65% RH, 2nd Month",108.41%
same,Assay (%),"[3]; in cream Batch No. SBV-01, 30° C. 65% RH, 3rd Month",108.36%
same,Assay (%),"[3]; in cream Batch No. SBV-01, 40° C. 75% RH, 1st Month",108.46%
same,Assay (%),"[3]; in cream Batch No. SBV-01, 40° C. 75% RH, 2nd Month",108.16%
same,Assay (%),"[3]; in cream Batch No. SBV-01, 40° C. 75% RH, 3rd Month",108.11%
same,Assay (%),"[3]; in cream Batch No. SBV-01, Freezthaw, 1st Month",108.01%
same,Assay (%),"[3]; in cream Batch No. SBV-01, Initial",108.57%
same,Assay (%),"[3]; in cream Batch No. SBV-01, Temperature cycling, 1st Month",107.53%
same,Assay (%),"[3]; in cream Batch No. SFB-01, 25° C. 60% RH, 1st Month",108.22%
same,Assay (%),"[3]; in cream Batch No. SFB-01, 25° C. 60% RH, 2nd Month",108.18%
same,Assay (%),"[3]; in cream Batch No. SFB-01, 25° C. 60% RH, 3rd Month",108.15%
same,Assay (%),"[3]; in cream Batch No. SFB-01, 30° C. 65% RH, 1st Month",108.25%
same,Assay (%),"[3]; in cream Batch No. SFB-01, 30° C. 65% RH, 2nd Month",108.22%
same,Assay (%),"[3]; in cream Batch No. SFB-01, 30° C. 65% RH, 3rd Month",108.18%
same,Assay (%),"[3]; in cream Batch No. SFB-01, 40° C. 75% RH, 1st Month",108.25%
same,Assay (%),"[3]; in cream Batch No. SFB-01, 40° C. 75% RH, 2nd Month",108.20%
same,Assay (%),"[3]; in cream Batch No. SFB-01, 40° C. 75% RH, 3rd Month",108.12%
same,Assay (%),"[3]; in cream Batch No. SFB-01, Freezthaw, 1st Month",108.11%
same,Assay (%),"[3]; in cream Batch No. SFB-01, Initial",108.28%
same,Assay (%),"[3]; in cream Batch No. SFB-01, Temperature cycling, 1st Month",108.23%
same,Assay (%),"[3]; in cream Batch No. SFC-01, 25° C. 60% RH, 1st Month",108.64%
same,Assay (%),"[3]; in cream Batch No. SFC-01, 25° C. 60% RH, 2nd Month",108.52%
same,Assay (%),"[3]; in cream Batch No. SFC-01, 25° C. 60% RH, 3rd Month",108.48%
same,Assay (%),"[3]; in cream Batch No. SFC-01, 25° C. 60% RH, 6th Month",108.38%
same,Assay (%),"[3]; in cream Batch No. SFC-01, 30° C. 65% RH, 1st Month",108.53%
same,Assay (%),"[3]; in cream Batch No. SFC-01, 30° C. 65% RH, 2nd Month",108.31%
same,Assay (%),"[3]; in cream Batch No. SFC-01, 30° C. 65% RH, 3rd Month",108.26%
same,Assay (%),"[3]; in cream Batch No. SFC-01, 30° C. 65% RH, 6th Month",108.22%
same,Assay (%),"[3]; in cream Batch No. SFC-01, 40° C. 75% RH, 1st Month",108.56%
same,Assay (%),"[3]; in cream Batch No. SFC-01, 40° C. 75% RH, 2nd Month",108.36%
same,Assay (%),"[3]; in cream Batch No. SFC-01, 40° C. 75% RH, 3rd Month",108.21%
same,Assay (%),"[3]; in cream Batch No. SFC-01, 40° C. 75% RH, 6th Month",108.18%
same,Assay (%),"[3]; in cream Batch No. SFC-01, Freezthaw, 1st Month",108.21%
same,Assay (%),"[3]; in cream Batch No. SFC-01, Initial",108.68%
same,Assay (%),"[3]; in cream Batch No. SFC-01, Temperature cycling, 1st Month",108.10%
same,Assay (%),"[3]; in cream Batch No. SFD-01, 25° C. 60% RH, 1st Month",108.60%
same,Assay (%),"[3]; in cream Batch No. SFD-01, 25° C. 60% RH, 2nd Month",108.54%
same,Assay (%),"[3]; in cream Batch No. SFD-01, 25° C. 60% RH, 3rd Month",108.46%
same,Assay (%),"[3]; in cream Batch No. SFD-01, 30° C. 65% RH, 1st Month",108.63%
same,Assay (%),"[3]; in cream Batch No. SFD-01, 30° C. 65% RH, 2nd Month",108.52%
same,Assay (%),"[3]; in cream Batch No. SFD-01, 30° C. 65% RH, 3rd Month",108.32%
same,Assay (%),"[3]; in cream Batch No. SFD-01, 40° C. 75% RH, 1st Month",108.58%
same,Assay (%),"[3]; in cream Batch No. SFD-01, 40° C. 75% RH, 2nd Month",108.44%
same,Assay (%),"[3]; in cream Batch No. SFD-01, 40° C. 75% RH, 3rd Month",108.30%
same,Assay (%),"[3]; in cream Batch No. SFD-01, Freezthaw, 1st Month",108.41%
same,Assay (%),"[3]; in cream Batch No. SFD-01, Initial",108.62%
same,Assay (%),"[3]; in cream Batch No. SFD-01, Temperature cycling, 1st Month",108.52%
same,Assay (%),"[3]; in cream Batch No. SFM-01, 25° C. 60% RH, 1st Month",108.24%
same,Assay (%),"[3]; in cream Batch No. SFM-01, 25° C. 60% RH, 2nd Month",108.22%
same,Assay (%),"[3]; in cream Batch No. SFM-01, 25° C. 60% RH, 3rd Month",108.20%
same,Assay (%),"[3]; in cream Batch No. SFM-01, 25° C. 60% RH, 6th Month",107.95%
same,Assay (%),"[3]; in cream Batch No. SFM-01, 30° C. 65% RH, 1st Month",108.23%
same,Assay (%),"[3]; in cream Batch No. SFM-01, 30° C. 65% RH, 2nd Month",108.21%
same,Assay (%),"[3]; in cream Batch No. SFM-01, 30° C. 65% RH, 3rd Month",108.16%
same,Assay (%),"[3]; in cream Batch No. SFM-01, 30° C. 65% RH, 6th Month",107.92%
same,Assay (%),"[3]; in cream Batch No. SFM-01, 40° C. 75% RH, 1st Month",108.26%
same,Assay (%),"[3]; in cream Batch No. SFM-01, 40° C. 75% RH, 2nd Month",108.14%
same,Assay (%),"[3]; in cream Batch No. SFM-01, 40° C. 75% RH, 3rd Month",108.08%
same,Assay (%),"[3]; in cream Batch No. SFM-01, 40° C. 75% RH, 6th Month",107.89%
same,Assay (%),"[3]; in cream Batch No. SFM-01, Freezthaw, 1st Month",108.11%
same,Assay (%),"[3]; in cream Batch No. SFM-01, Initial",108.27%
same,Assay (%),"[3]; in cream Batch No. SFM-01, Temperature cycling, 1st Month",107.63%
same,Assay (%),"[3]; in cream Batch No. SPC-01, 25° C. 60% RH, 1st Month",108.30%
same,Assay (%),"[3]; in cream Batch No. SPC-01, 25° C. 60% RH, 2nd Month",108.24%
same,Assay (%),"[3]; in cream Batch No. SPC-01, 25° C. 60% RH, 3rd Month",108.15%
same,Assay (%),"[3]; in cream Batch No. SPC-01, 25° C. 60% RH, 6th Month",108.08%
same,Assay (%),"[3]; in cream Batch No. SPC-01, 30° C. 65% RH, 1st Month",108.31%
same,Assay (%),"[3]; in cream Batch No. SPC-01, 30° C. 65% RH, 2nd Month",108.32%
same,Assay (%),"[3]; in cream Batch No. SPC-01, 30° C. 65% RH, 3rd Month",108.22%
same,Assay (%),"[3]; in cream Batch No. SPC-01, 30° C. 65% RH, 6th Month",108.11%
same,Assay (%),"[3]; in cream Batch No. SPC-01, 40° C. 75% RH, 1st Month",108.33%
same,Assay (%),"[3]; in cream Batch No. SPC-01, 40° C. 75% RH, 2nd Month",108.24%
same,Assay (%),"[3]; in cream Batch No. SPC-01, 40° C. 75% RH, 3rd Month",108.10%
same,Assay (%),"[3]; in cream Batch No. SPC-01, 40° C. 75% RH, 6th Month",108.01%
same,Assay (%),"[3]; in cream Batch No. SPC-01, Freezthaw, 1st Month",108.22%
same,Assay (%),"[3]; in cream Batch No. SPC-01, Initial",108.38%
same,Assay (%),"[3]; in cream Batch No. SPC-01, Temperature cycling, 1st Month",108.28%
